# Measurements from ChEMBL document CHEMBL3885881, “DrugMatrix”.
# Species: Rattus norvegicus
# Test: DrugMatrix - Regimen: Daily Repeat
# Type: toxicity, organism-based, Sprague-Dawley
# Design: regimen Daily Repeat, gender Male, age 6-8 weeks
# Settings: in vivo, iv, vehicle 100 % SALINE; for ABSOLUTE BASOPHIL / ABSOLUTE EOSINOPHIL / ABSOLUTE LYMPHOCYTE / ABSOLUTE MONOCYTE / ABSOLUTE SEGMENTED NEUTROPHIL / BASOPHIL / EOSINOPHIL / ERYTHROCYTE COUNT / HEMATOCRIT / HEMOGLOBIN / LEUKOCYTE COUNT / LYMPHOCYTE / MEAN CORPUSCULAR HEMOGLOBIN / MEAN CORPUSCULAR HEMOGLOBIN CONCENTRATION / MEAN CORPUSCULAR VOLUME / MONOCYTE / NEUTROPHIL / NUCLEATED RED BLOOD CELLS / PLATELET COUNT: tissue Blood; for ALANINE AMINOTRANSFERASE / ALBUMIN / ALKALINE PHOSPHATASE / ASPARTATE AMINOTRANSFERASE / BLOOD UREA NITROGEN / CARBON DIOXIDE / CHLORIDE / CHOLESTEROL / CREATINE PHOSPHOKINASE / CREATININE / GLUCOSE / LACTATE DEHYDROGENASE / LIPASE / PHOSPHORUS / POTASSIUM / SODIUM / TOTAL BILIRUBIN / TOTAL PROTEIN / URIC ACID: tissue Plasma
# [1] = 3 mg/kg, 120 h, dose level Low, time 5 day
# [2] = 54 mg/kg, 72 h, dose level High, time 3 day
# [3] = 54 mg/kg, 120 h, dose level High, time 5 day
structure (smiles),measurement,setting,value
O=c1[nH]c(=O)n([C@H]2C[C@H](O)[C@@H](CO)O2)cc1F [FLOXURIDINE],ABSOLUTE BASOPHIL,[1],0 CELLS/uL
same,ABSOLUTE EOSINOPHIL,[1],0 CELLS/uL
same,ABSOLUTE LYMPHOCYTE,[1],11533 CELLS/uL
same,ABSOLUTE MONOCYTE,[1],174 CELLS/uL
same,ABSOLUTE SEGMENTED NEUTROPHIL,[1],693 CELLS/uL
same,BASOPHIL,[1],0%
same,EOSINOPHIL,[1],0%
same,ERYTHROCYTE COUNT,[1],5.61 x10E6/uL
same,HEMATOCRIT,[1],34.57%
same,HEMOGLOBIN,[1],13.83 G/DL
same,LEUKOCYTE COUNT,[1],12.4 x10E3/uL
same,LYMPHOCYTE,[1],93%
same,MEAN CORPUSCULAR HEMOGLOBIN,[1],24.7 pg
same,MEAN CORPUSCULAR HEMOGLOBIN CONCENTRATION,[1],40.03 G/DL
same,MEAN CORPUSCULAR VOLUME,[1],61.73 fL
same,MONOCYTE,[1],1.33%
same,NEUTROPHIL,[1],5.67%
same,NUCLEATED RED BLOOD CELLS,[1],0 /100WBC
same,PLATELET COUNT,[1],883.33 x10E3/uL
same,ALANINE AMINOTRANSFERASE,[1],53.33 u/L
same,ALBUMIN,[1],4.33 G/DL
same,ALKALINE PHOSPHATASE,[1],392.33 u/L
same,ASPARTATE AMINOTRANSFERASE,[1],95.67 u/L
same,BLOOD UREA NITROGEN,[1],18.67 mg/dL
same,CARBON DIOXIDE,[1],26.33 mmol/L
same,CHLORIDE,[1],102 MEQ/L
same,CHOLESTEROL,[1],64.67 mg/dL
same,CREATINE PHOSPHOKINASE,[1],328 u/L
same,CREATININE,[1],0.28 mg/dL
same,GLUCOSE,[1],167.33 mg/dL
same,LACTATE DEHYDROGENASE,[1],433.67 u/L
same,LIPASE,[1],10.33 u/L
same,PHOSPHORUS,[1],11.63 mg/dL
same,POTASSIUM,[1],6.75 MEQ/L
same,SODIUM,[1],142.7 MEQ/L
same,TOTAL BILIRUBIN,[1],0.23 mg/dL
same,TOTAL PROTEIN,[1],5.93 G/DL
same,URIC ACID,[1],1.83 mg/dL
same,ABSOLUTE BASOPHIL,[2],0 CELLS/uL
same,ABSOLUTE EOSINOPHIL,[2],0 CELLS/uL
same,ABSOLUTE LYMPHOCYTE,[2],10754.33 CELLS/uL
same,ABSOLUTE MONOCYTE,[2],75.67 CELLS/uL
same,ABSOLUTE SEGMENTED NEUTROPHIL,[2],703.33 CELLS/uL
same,BASOPHIL,[2],0%
same,EOSINOPHIL,[2],0%
same,ERYTHROCYTE COUNT,[2],5.48 x10E6/uL
same,HEMATOCRIT,[2],33.43%
same,HEMOGLOBIN,[2],13.3 G/DL
same,LEUKOCYTE COUNT,[2],11.53 x10E3/uL
same,LYMPHOCYTE,[2],93.33%
same,MEAN CORPUSCULAR HEMOGLOBIN,[2],24.33 pg
same,MEAN CORPUSCULAR HEMOGLOBIN CONCENTRATION,[2],39.83 G/DL
same,MEAN CORPUSCULAR VOLUME,[2],61.17 fL
same,MONOCYTE,[2],0.67%
same,NEUTROPHIL,[2],6%
same,NUCLEATED RED BLOOD CELLS,[2],0 /100WBC
same,PLATELET COUNT,[2],1073.67 x10E3/uL
same,ALANINE AMINOTRANSFERASE,[2],48.33 u/L
same,ALBUMIN,[2],4.13 G/DL
same,ALKALINE PHOSPHATASE,[2],268 u/L
same,ASPARTATE AMINOTRANSFERASE,[2],81.67 u/L
same,BLOOD UREA NITROGEN,[2],19 mg/dL
same,CARBON DIOXIDE,[2],28.67 mmol/L
same,CHLORIDE,[2],103.33 MEQ/L
same,CHOLESTEROL,[2],68.33 mg/dL
same,CREATINE PHOSPHOKINASE,[2],307.67 u/L
same,CREATININE,[2],0.18 mg/dL
same,GLUCOSE,[2],150.67 mg/dL
same,LACTATE DEHYDROGENASE,[2],152.33 u/L
same,LIPASE,[2],10.33 u/L
same,PHOSPHORUS,[2],9.83 mg/dL
same,POTASSIUM,[2],5.66 MEQ/L
same,SODIUM,[2],141.27 MEQ/L
same,TOTAL BILIRUBIN,[2],0.2 mg/dL
same,TOTAL PROTEIN,[2],5.67 G/DL
same,URIC ACID,[2],1.2 mg/dL
same,ABSOLUTE BASOPHIL,[3],0 CELLS/uL
same,ABSOLUTE EOSINOPHIL,[3],0 CELLS/uL
same,ABSOLUTE LYMPHOCYTE,[3],10553 CELLS/uL
same,ABSOLUTE MONOCYTE,[3],101.33 CELLS/uL
same,ABSOLUTE SEGMENTED NEUTROPHIL,[3],445.67 CELLS/uL
same,BASOPHIL,[3],0%
same,EOSINOPHIL,[3],0%
same,ERYTHROCYTE COUNT,[3],4.83 x10E6/uL
same,HEMATOCRIT,[3],31%
same,HEMOGLOBIN,[3],12.7 G/DL
same,LEUKOCYTE COUNT,[3],11.1 x10E3/uL
same,LYMPHOCYTE,[3],95%
same,MEAN CORPUSCULAR HEMOGLOBIN,[3],26.57 pg
same,MEAN CORPUSCULAR HEMOGLOBIN CONCENTRATION,[3],41.07 G/DL
same,MEAN CORPUSCULAR VOLUME,[3],64.57 fL
same,MONOCYTE,[3],1%
same,NEUTROPHIL,[3],4%
same,NUCLEATED RED BLOOD CELLS,[3],0 /100WBC
same,PLATELET COUNT,[3],1207.33 x10E3/uL
same,ALANINE AMINOTRANSFERASE,[3],45 u/L
same,ALBUMIN,[3],4.17 G/DL
same,ALKALINE PHOSPHATASE,[3],347 u/L
same,ASPARTATE AMINOTRANSFERASE,[3],84 u/L
same,BLOOD UREA NITROGEN,[3],17.67 mg/dL
same,CARBON DIOXIDE,[3],26.67 mmol/L
same,CHLORIDE,[3],102.33 MEQ/L
same,CHOLESTEROL,[3],52.67 mg/dL
same,CREATINE PHOSPHOKINASE,[3],429.33 u/L
same,CREATININE,[3],0.12 mg/dL
same,GLUCOSE,[3],154 mg/dL
same,LACTATE DEHYDROGENASE,[3],306 u/L
same,LIPASE,[3],9.33 u/L
same,PHOSPHORUS,[3],9.83 mg/dL
same,POTASSIUM,[3],5.61 MEQ/L
same,SODIUM,[3],142.1 MEQ/L
same,TOTAL BILIRUBIN,[3],0.17 mg/dL
same,TOTAL PROTEIN,[3],5.53 G/DL
same,URIC ACID,[3],1.5 mg/dL
